From PMC9000336, “Development of Bicyclo[3.1.0]hexane-Based A3 Receptor Ligands: Closing the Gaps in the Structure–Affinity Relationships” (Molecules, 2022) come the findings set out here.

The term inhibition denotes the percentage by which the read-out fell short of the control. By Ki is commonly meant the equilibrium dissociation constant of an inhibitor or competing ligand from its target.

The target of this experiment is T1, human adenosine A3 receptor (Homo sapiens, UniProt P0DMS8).
T1 construct: expressed in transfected cells; host or cells: CHO cells (CHOhA3R), gift of Dr. K.-N. Klotz (University of Würzburg); membrane preparation
T1 sequence (P0DMS8 1-318): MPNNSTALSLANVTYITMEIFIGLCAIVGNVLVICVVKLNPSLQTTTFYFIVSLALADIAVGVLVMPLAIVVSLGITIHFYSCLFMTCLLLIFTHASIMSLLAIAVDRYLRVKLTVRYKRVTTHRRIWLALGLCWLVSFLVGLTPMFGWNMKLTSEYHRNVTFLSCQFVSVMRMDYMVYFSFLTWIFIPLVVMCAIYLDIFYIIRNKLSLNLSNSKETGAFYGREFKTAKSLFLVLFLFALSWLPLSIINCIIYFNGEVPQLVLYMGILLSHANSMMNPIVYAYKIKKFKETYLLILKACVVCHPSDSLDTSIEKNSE
As to the kind of experiment: Radioligand displacement assay, human adenosine A3 receptor ([3H]PSB11, CHOhA3R membranes). The experiment is classed as binding. Particulars: n = 3. As for the experimental part:
Chinese hamster ovary (CHO) cells stably expressing the human adenosine A1 receptor (CHOhA1R) were kindly provided by Prof. S. J. Hill and CHO cells stably expressing the human adenosine A3 receptor (CHOhA3R) were a gift from Dr. K.-N. Klotz (University of Würzburg, Germany). Chinese hamster ovary cells stably expressing the human A1-receptor (CHOhA1R) or the human A3-receptor (CHOhA3R) were grown in Dulbecco’s Modified Eagle’s Medium (DMEM) and Ham’s F12 medium (1:1) supplemented with 10% (v/v) newborn calf serum, 50 µg/mL streptomycin, 50 IU/mL penicillin, and 200 µg/mL G418 at 37 °C and 5% CO2. […] All cells were grown to 80–90% confluency and detached from plates by scraping them into 5 mL phosphate-buffered saline. Detached cells were collected and centrifuged at 200 g for 5 min. Pellets derived from 100 15 cm Ø plates were pooled and resuspended in 70 mL of ice-cold 50 mM tris(hydroxymethyl)aminomethane (Tris)-HCl buffer, pH 7.4. A Heidolph Diax 900 homogenizer was used to homogenize the cell suspension. Membranes and the cytosolic fraction were separated by centrifugation at 100,000 g in a Beckman Optima LE-80 K ultracentrifuge (Beckman Coulter, Fullerton, CA, USA) at 4 °C for 20 min. The pellet was resuspended in 35 mL of the Tris-HCl buffer, and the homogenization and centrifugation steps were repeated. Tris-HCl buffer (25 mL) was used to resuspend the pellet, and adenosine deaminase (ADA) was added (0.8 U/mL) to break down endogenous adenosine. Membranes were stored in 250 µL and 500 µL aliquots at −80 °C. Total protein concentrations were measured using the bicinchoninic acid (BCA) method.
A3 Receptor: Membrane aliquots containing 15 µg (CHOhA3R) total protein were incubated in a total volume of 100 µL assay buffer (50 mM Tris-HCl, pH 8.0, supplemented with 10 mM MgCl2, 1 mM EDTA and 0.01% (w/v) CHAPS) at 25 °C for 2 h. Radioligand displacement experiments were performed using six concentrations of competing ligand in the presence of 10 nM [^3H]8-ethyl-4-methyl-2-phenyl-(8R)-4,5,7,8-tetrahydro-1H-imidazo[2.1-i]purin-5-one ([^3H]PSB11). […] Nonspecific binding was determined in the presence of 100 µM NECA. Incubations were terminated by rapid vacuum filtration to separate the bound and free radioligand through prewetted 96-well GF/B filter plates using a PerkinElmer Filtermate-harvester (Perkin Elmer, Groningen, The Netherlands). Filters were subsequently washed 12 times with ice-cold 50 mM Tris-HCl supplemented with 10 mM MgCl2, and 1 mM EDTA, pH 8.0 for CHOhA3R.
The plates of all four adenosine receptor assays were dried at 55 °C after which MicroscintTM-20-cocktail was added (Perkin Elmer, Groningen, The Netherlands).
All experimental data were analyzed using the non-linear regression curve fitting program GraphPad Prism 7.0 (GraphPad Software Inc., San Diego, CA, USA). IC50 values obtained from competition displacement binding data were converted into Ki values using the Cheng–Prusoff equation.
For orientation: Displacement assays read how much labelled ligand stays bound in the presence of the test substance.

The compound `CSc1nc(N)c2ncn([C@H]3[C@H](O)[C@H](O)[C@]4(Cn5cc(CO)nn5)C[C@H]34)c2n1` [Compound 39, (1R,2R,3S,4R,5S)-4-(6-Amino-2-methylthio-9H-purin-9-yl)-1-{[4-(hydroxymethyl)-1H-1,2,3-triazol-1-yl]methyl}bicyclo[3.1.0]hexane-2,3-diol] returned an inhibition at 10 µM (test compound 10 µM) of 37%.
On to `COC(=O)CCc1cn(C[C@@]23C[C@@H]2[C@@H](n2cnc4c(N)nc(SC)nc42)[C@H](O)[C@@H]3O)nn1` [Compound 42, Methyl 3-(1-{[(1R,2R,3S,4R,5S)-4-(6-amino-2-methylthio-9H-purin-9-yl)-2,3-dihydroxybicyclo[3.1.0]hex-1-yl]methyl}-1H-1,2,3-triazol-4-yl)propanoate], for which the inhibitory constant (Ki) ([3H]PSB11, read-out: A3 Ki ± SEM) amounted to 6.35 ± 0.23 µM.
